Experimental data from the NIST ThermoML archive (doi:10.1021/acs.jced.7b00452).
Numbers after ± are expanded uncertainties.

Columns and labels:
[1] = mn = molality of the nth substance listed, in mol/kg; settings: 101.3 kPa, Liquid; for speed of sound: Single path-length method; for mass density: Vibrating tube method
[2] = 318.15 K; 101.3 kPa; Liquid; Single path-length method

| speed of sound ([1]; 298.15 K, m1 = 0.025) | speed of sound ([1]; 298.15 K, m1 = 0.05) | mass density ([1]; 298.15 K, m1 = 0.025) | mass density ([1]; 298.15 K, m1 = 0.05) | speed of sound ([1]; 308.15 K, m1 = 0.025) | speed of sound ([1]; 308.15 K, m1 = 0.05) | mass density ([1]; 308.15 K, m1 = 0.025) | mass density ([1]; 308.15 K, m1 = 0.05) | speed of sound ([1]; 318.15 K, m1 = 0.025) | speed of sound ([1]; 318.15 K, m1 = 0.05) | mass density ([1]; 318.15 K, m1 = 0.025) | mass density ([1]; 318.15 K, m1 = 0.05) | speed of sound [2] | Compound | speed of sound ([1]; 318.15 K, m2 = 0) |
| --- | --- | --- | --- | --- | --- | --- | --- | --- | --- | --- | --- | --- | --- | --- |
| 1498.8 ± 1 m/s | 1500 ± 1 m/s | 997.765 ± 0.1 kg/m3 | 998.484 ± 0.1 kg/m3 | 1521.6 ± 1 m/s | 1522.7 ± 1 m/s | 994.741 ± 0.1 kg/m3 | 995.466 ± 0.1 kg/m3 | 1538 ± 1 m/s | 1539.2 ± 1 m/s | 990.91 ± 0.11 kg/m3 | 991.637 ± 0.11 kg/m3 |  | C[C@H](N)C(=O)O [(S)-2-aminopropanoic acid] + O |  |
| 1498.9 ± 1 m/s | 1501.7 ± 1 m/s | 997.706 ± 0.1 kg/m3 | 998.248 ± 0.1 kg/m3 | 1521.7 ± 1 m/s | 1524.2 ± 1 m/s | 994.661 ± 0.1 kg/m3 | 995 ± 0.1 kg/m3 | 1537.7 ± 1 m/s | 1540.2 ± 1 m/s | 990.798 ± 0.1 kg/m3 | 991.103 ± 0.1 kg/m3 |  | CC(C)[C@H](N)C(=O)O [L-valine] + O |  |
|  |  |  |  |  |  |  |  |  |  |  |  | 1536.7 ± 1 m/s | O [water] |  |
|  |  |  |  |  |  |  |  |  |  |  |  |  | O [water] + CCN(CC)CCNC(=O)c1ccc(N)cc1.Cl | 1536.7 ± 1 m/s |
